These results are taken from patent US20100143960A1, “CYANINE DERIVATIVES, FLUORESCENT CONJUGATES CONTAINING SAME AND USE THEREOF” (CIS BIO INTERNATIONAL, priority 2007, published 2010).

Data set [1] can be described thus: Comparison of quantum yields / fluorescence spectrum of cyanine derivatives carrying phosphonate groups. The data set is classed as physicochemical. Here is the method: Fluorescence spectrum: Measurement on a Perkin-Elmer LS50 device, the samples were diluted in phosphate buffer 0.1M pH 7 containing 0.1% BSA (maximum absorbance=0.04 at the excitation wavelength). Excitation: 600 nm (10 nm). Emission (max)=670.5 nm (quantum yield=13%).
The phosphate/phosphonate ester functional groups of the cyanine derivatives according to the invention are hydrolyzed in the cell by cell enzymes to give phosphate/phosphonate functional groups. The quantum yields of the cyanine derivatives carrying phosphonate groups, thus corresponding to the compounds according to the invention as present in the cell after hydrolysis of the ester functional groups, were measured in order to determine if the position of the phosphate/phosphonate ester groups influences the photophysical properties of the compounds.

For data set [2], the system named is fusion protein GST-ST26-Flag in CHO-K1 cells. In words: Labeling of an intracellular protein in intact living cells, detected by HTRF measurement. The data set is classed as cell-based. To be noted: 5 μM substrate, 3 h at 20° C. The text has this:
This example is targeted at showing that the compounds according to the invention comprising a phosphonate ester and conjugated to a substrate (benzylguanine, BG) for a “snaptag” suicide enzyme (ST26) are capable of passing through the cell membrane and of labeling a fusion protein expressed by the cell and comprising the snaptag enzyme ([…]), in contrast to the use of a cyanine not comprising phosphonate esters (DY-647).
The HTRF technique is used to test the intracellular labeling of a protein by the cyanine derivatives according to the invention, on living cells, using the recombinant protein GST-ST26-Flag produced by the cells and labeled indirectly via an anti-GST antibody conjugated with a europium trisbipyridine cryptate (anti-GST-EuTBP).
After culturing, CHO-K1 cells are transfected in the presence of lipofectamine 2000 (0.8 μl per 50 μl of transfection solution, Lipofectamine™ Transfection Reagent, Invitrogen Inc., Carlsbad, Calif.) at the rate of 50 000 cells per well in a black 96-well microplate. The transfected cells are subsequently incubated for 24 h at 37° C., 5% CO2. […]
The fluorescence at 665 nm is measured on an HTRF reader (RUBYstar, BMG Labtechnologies). […]
(Time-resolved FRET reads energy transfer from a long-lived donor to a nearby acceptor.)

The test system of data set [3] is stable CHO line expressing SnapTag in the nucleus. In words: Test of cell permeability of benzylguanine conjugates (fluorescence microscopy). The data set is classed as cell-based. To be noted: 5 μM in culture medium, one hour contact, washing, additional hour, microscopic analysis, FIG. 1. The method, then: The cells used result from a stable CHO line expressing SnapTag in the nucleus by virtue of the NLS sequence. The compounds are added to the culture medium (DMEM medium supplemented with 10% of inactivated SVF, 30 min at 60° C.) at a concentration of 5 μM and left in contact with the cells for one hour. After the incubation, three washing operations are carried out with culture medium. An additional hour of incubation solely in the medium is carried out in order to make possible the labeling of the SnapTag by the substrate. Staining of the […] is subsequently carried out with DAPI before the microscopic analysis.
The above images are represented in FIG. 1.

For data set [4] the following is noted: aqueous medium, nonsulfonated; cited from earlier work.
The conditions of data set [5]: in solution; cited from earlier work.
Where [6] appears, read: phosphate buffer 0.1M pH 7 containing 0.1% BSA, excitation 600 nm.

On to “2-{(1E,3E,5E)-5-[3-(5-Carboxypentyl)-3-methyl-4-ethyl-5-phosphono-1,3-dihydro-2H-indol-2-ylidene]penta-1,3-dienyl}-5-phosphono-3,3-dimethyl-1-(4-ethyl)-3H-indolium [compound 19]”, for which, in data set [1] (setting [6]), the “Emission (max)” value came out at 670.5 nm and the quantum yield stood at 13%. For the same molecule, in data set [1] (phosphonate (hydrolyzed) form), the “Wavelength of max. absorption” value is listed as 649 nm, the “Wavelength of max. emission” value was determined as 670 nm and the quantum yield came to 13%.

As to `CCN1/C(=C/C=C/C=C/C2=[N+](CC)c3ccc(S(=O)(=O)[O-])cc3C2(C)C)C(C)(CCCC(=O)NCc2ccc(COc3nc(N)nc4[nH]cnc34)cc2)c2cc(S(=O)(=O)O)ccc21` (stereo not shown) [BG-DY647], in data set [2] (CHO-K1, HTRF with anti-GST-EuTBP, FIG. 2), the “percentage of intracellular labeling (signal at 665 nm passive labeling / total labeling)” value is listed as “penetrates poorly into cells”. Moreover, the “passes through the cell membrane and labels an intracellular protein” value in data set [2] (intact CHO-K1 cells) is recorded as “not the case”. The “passage through the plasma membrane of the cells (intracellular fluorescence)” value in data set [3] is on record as “have not passed through the plasma membrane”.

Regarding `CN1C(=CC=C2CCCC(C=CC3=[N+](C)c4ccccc4C3(C)C)=C2Cl)C(C)(C)c2ccccc21.[O-][Cl+3]([O-])([O-])[O-]` [IR-786], the solubility result in data set [4] was “less than 10 μM”.

Turning to `CC1(C)C(/C=C/C=C/C=C/C=C2\N(CCCCS(=O)(=O)O)c3ccc4ccccc4c3C2(C)C)=[N+](CCCCS(=O)(=O)[O-])c2ccc3ccccc3c21` [indocyanine green], the “concentration above which quantum yield falls due to formation of aggregates” value in data set [5] was “greater than 125 μM”.
